The results in this text go back to ChEMBL document CHEMBL1201862, “PubChem BioAssay data set” (2004).

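48-hour exposure; five concentrations; linearly interpolated endpoints. GI50 is the concentration that inhibits growth by half.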 Active and inactive are the calls of the source. Rule as the data show it: active = GI50 up to about 1.1 µM and inactive = higher.

Some test systems named below: UO-31; NCI-H226; MOLT-4; SK-MEL-2; HOP-92; MDA-MB-231; SK-OV-3; SK-MEL-28; T47D; DU-145; NCI/ADR-RES; NCI-H522; SK-MEL-5; SR; HL-60; SW-620; OVCAR-8.
What all share (assay): NCI tumour cell line growth inhibition, 48 h

On to `CCCCCCCCCCCCn1c(=O)cc(NCCCC)c2cc3c(NCCCC)cc(=O)n(CCCCCCCCCCCC)c3nc21`, for which the GI50 in the assay on UO-31, in the assay on NCI-H226, with MOLT-4, in the assay on SK-MEL-2, with HOP-92 and in the assay with MDA-MB-231 was > 100 µM (inactive) throughout. For the same molecule, the GI50 with SK-OV-3, in the assay on SK-MEL-28, in the assay on T47D, in the assay on DU-145, in the assay on NCI/ADR-RES and in the assay on NCI-H522 was > 100 µM (inactive) each time. In the assay with SK-MEL-5, the GI50 was > 100 µM (inactive).
As to `COc1ccc(/C=C2\N=C(c3ccccc3)OC2=O)cc1OC(C)=O`, the GI50 with UO-31 is 58.7 µM (inactive); in the assay with NCI-H226, > 100 µM (inactive); in the assay with MOLT-4 it was 0.615 µM (active); with SR, 15.2 µM (inactive); with SK-MEL-2, 27.5 µM (inactive); with HOP-92 it was 54.1 µM (inactive). Further, the GI50 in the assay with MDA-MB-231 was 46.5 µM (inactive); in the assay on SK-OV-3 it was > 100 µM (inactive); in the assay with HL-60, 41.1 µM (inactive); in the assay with SK-MEL-28, > 100 µM (inactive); in the assay on SW-620, 51.4 µM (inactive); in the assay with T47D, > 100 µM (inactive). In addition, the GI50 was > 100 µM (inactive) with DU-145, > 100 µM (inactive) in the assay with NCI/ADR-RES, 50.4 µM (inactive) with OVCAR-8 and 63 µM (inactive) in the assay with SK-MEL-5.
Regarding `Cc1cccc(NC(=S)Nc2ccc(Cl)cc2)n1`, the GI50 with UO-31, in the assay with NCI-H226, in the assay on MOLT-4, in the assay with SR, in the assay with SK-MEL-2 and in the assay with HOP-92 was > 100 µM (inactive) throughout. The GI50 with MDA-MB-231, in the assay on SK-OV-3, with HL-60, in the assay on SK-MEL-28, with SW-620 and in the assay with T47D was > 100 µM (inactive) in each case. The GI50 with DU-145, in the assay with NCI/ADR-RES, with OVCAR-8 and in the assay with SK-MEL-5 was > 100 µM (inactive) in each case.
As to `Cc1ccc(C(=O)c2[nH]c(NCc3ccccc3)c(C(=S)Nc3ccccc3)c2N)cc1`, the GI50 in the assay on UO-31 is 5.32 µM (inactive); in the assay with NCI-H226, 11.5 µM (inactive); in the assay on MOLT-4, 2.83 µM (inactive); with SK-MEL-2, 10.8 µM (inactive); in the assay on HOP-92, 6.58 µM (inactive); in the assay on MDA-MB-231, 6.55 µM (inactive). Moreover, the GI50 with SK-OV-3 is 2.77 µM (inactive); in the assay on HL-60, 16.3 µM (inactive); with SK-MEL-28, 3.64 µM (inactive); in the assay on SW-620, 2.38 µM (inactive); in the assay with T47D it was 10.3 µM (inactive); with DU-145, 13.8 µM (inactive). The GI50 with NCI/ADR-RES was 2.58 µM (inactive); with NCI-H522, 2.21 µM (inactive); in the assay with OVCAR-8, 12.1 µM (inactive).
As for `CCCCCCC(C)CC(CCCCCC)NCCOC(=O)c1ccc([N+](=O)[O-])cc1` (stereo not given), the GI50 was 11.6 µM (inactive) in the assay on UO-31; 14.1 µM (inactive) with NCI-H226; 15.8 µM (inactive) in the assay with SK-MEL-2; 10.1 µM (inactive) with HOP-92; 10.4 µM (inactive) in the assay on MDA-MB-231; 16.3 µM (inactive) in the assay on SK-OV-3. In addition, the GI50 is 12.6 µM (inactive) in the assay with SK-MEL-28; 13.6 µM (inactive) in the assay with SW-620; 15.6 µM (inactive) in the assay with T47D; 15.6 µM (inactive) in the assay on DU-145; 21.3 µM (inactive) with NCI/ADR-RES; 13.8 µM (inactive) in the assay on NCI-H522. In addition, the values for the GI50 in the assay with OVCAR-8 and in the assay with SK-MEL-5 were 10.2 µM (inactive) and 14.3 µM (inactive), respectively.
Turning to `COc1ccc2cc(C(=O)Nc3ccc(O)c(C(=O)O)c3)ccc2c1OC`, the GI50 in the assay on UO-31, with NCI-H226, in the assay with MOLT-4, in the assay with SR, in the assay with SK-MEL-2 and with MDA-MB-231 was > 100 µM (inactive) throughout. In addition, the GI50 with SK-OV-3, in the assay with HL-60, in the assay with SK-MEL-28, in the assay on SW-620, in the assay with T47D and in the assay on DU-145 was > 100 µM (inactive) throughout. Moreover, the GI50 was > 100 µM (inactive) in the assay with NCI/ADR-RES, 49.4 µM (inactive) in the assay with NCI-H522, > 100 µM (inactive) in the assay with OVCAR-8 and > 100 µM (inactive) in the assay on SK-MEL-5.
In the case of `COc1ccc(N2C(=O)C3c4[nH]c5c(C)cccc5c4C4CCC(C(C)(C)C)CC4C3C2=O)cc1` (stereo not given), the GI50 was 2.72 µM (inactive) in the assay on UO-31; > 10 µM (inactive) in the assay on NCI-H226; 3.47 µM (inactive) in the assay on MOLT-4; 3.44 µM (inactive) in the assay with SR; > 10 µM (inactive) in the assay on SK-MEL-2; > 10 µM (inactive) in the assay with MDA-MB-231. Moreover, the GI50 with SK-OV-3 is > 10 µM (inactive); with HL-60, 3.3 µM (inactive); in the assay with SK-MEL-28, > 10 µM (inactive); with SW-620 it was 6.62 µM (inactive); with T47D it was > 10 µM (inactive); with DU-145, > 10 µM (inactive). Moreover, the GI50 in the assay on NCI/ADR-RES, in the assay with NCI-H522, in the assay on OVCAR-8 and with SK-MEL-5 was > 10 µM (inactive) in each case.
Turning to `Cn1c(N)cc(=O)nc1N`, the GI50 in the assay on UO-31, in the assay with NCI-H226, in the assay with MOLT-4, with SR, in the assay with SK-MEL-2 and in the assay on MDA-MB-231 was > 100 µM (inactive) throughout. Also, the GI50 in the assay with SK-OV-3, in the assay on HL-60, in the assay with SK-MEL-28, in the assay on SW-620, with T47D and in the assay on DU-145 was > 100 µM (inactive) in each case. Further, the GI50 in the assay on NCI/ADR-RES, in the assay on NCI-H522, in the assay on OVCAR-8 and with SK-MEL-5 was > 100 µM (inactive) in each case.
Take `O=C(/C(=C(/Br)I)c1ccccc1)c1ccccc1`: the GI50 is 22.7 µM (inactive) in the assay with UO-31; 19.3 µM (inactive) with NCI-H226; 15.2 µM (inactive) in the assay with MOLT-4; 27 µM (inactive) in the assay on SR; 18.8 µM (inactive) in the assay on HOP-92; 25.5 µM (inactive) in the assay with MDA-MB-231. The GI50 in the assay on SK-OV-3 was 38.5 µM (inactive); with HL-60, 28 µM (inactive); in the assay with T47D, 22.6 µM (inactive); in the assay on DU-145, 14.3 µM (inactive); in the assay with NCI/ADR-RES, 16.8 µM (inactive); with OVCAR-8, 23.5 µM (inactive). In the assay on SK-MEL-5, the GI50 was 14.6 µM (inactive).
In the case of `CC[C@H](C)[C@H]1NC(=O)[C@@H](NC(=O)[C@@H](CC(C)C)N(C)C(=O)C2CCCN2C(=O)[C@H](C)O)[C@@H](C)OC(=O)[C@H](Cc2ccccc2)N(C)C(=O)[C@@H]2CCCN2C(=O)[C@H](CC(C)C)NC(=O)[C@@H](C)C(=O)[C@H](C(C)C)OC(=O)C[C@@H]1O` (stereo not given in full), the GI50 in the assay with UO-31, in the assay on NCI-H226, in the assay with MOLT-4, with SK-MEL-2, in the assay with HOP-92 and in the assay on MDA-MB-231 was < 0.00625 µM (active) each time. In addition, the GI50 with SK-OV-3 is < 0.00625 µM (active); in the assay with HL-60 it was 0.122 µM (active); in the assay on SK-MEL-28 it was < 0.00625 µM (active); in the assay with SW-620, < 0.00625 µM (active); in the assay with T47D, < 0.00625 µM (active); in the assay on DU-145, < 0.00625 µM (active). Besides, the GI50 in the assay on NCI/ADR-RES is 0.0589 µM (active); in the assay with NCI-H522, < 0.00625 µM (active); in the assay on OVCAR-8 it was < 0.00625 µM (active); with SK-MEL-5 it was < 0.00625 µM (active).
Take `CCCCNc1nc(O)c2[nH]cnc2n1`: the GI50 with UO-31, in the assay on NCI-H226, in the assay on MOLT-4, in the assay with SK-MEL-2, in the assay on HOP-92 and with MDA-MB-231 was > 100 µM (inactive) throughout. Moreover, the GI50 was > 100 µM (inactive) in the assay with SK-OV-3; > 100 µM (inactive) in the assay on SW-620; > 100 µM (inactive) in the assay with T47D; > 100 µM (inactive) with DU-145; > 100 µM (inactive) with NCI/ADR-RES; 51.8 µM (inactive) in the assay with NCI-H522. Also, the GI50 in the assay on OVCAR-8 and in the assay on SK-MEL-5 was > 100 µM (inactive) each time.
As to `Oc1ccc(-c2nc(-c3cccnc3)c(-c3ccc(Cl)cc3)[nH]2)cc1`, the GI50 is 10.8 µM (inactive) with UO-31; 18.8 µM (inactive) with NCI-H226; 2.52 µM (inactive) in the assay on MOLT-4; 5.43 µM (inactive) with SR; 18.2 µM (inactive) in the assay on SK-MEL-2; 16.2 µM (inactive) in the assay on MDA-MB-231. Also, the GI50 was 13.6 µM (inactive) in the assay on SK-OV-3; 6.95 µM (inactive) in the assay with HL-60; 16 µM (inactive) in the assay on SK-MEL-28; 14.6 µM (inactive) in the assay on SW-620; 11.7 µM (inactive) in the assay on T47D; 14.3 µM (inactive) in the assay on DU-145. The GI50 in the assay on NCI/ADR-RES is 14.5 µM (inactive); in the assay on NCI-H522, 10.3 µM (inactive); in the assay with OVCAR-8, 14.8 µM (inactive); with SK-MEL-5 it was 12.1 µM (inactive).
Regarding `COc1ccccc1-c1cc(O)c2ccc(C)nc2n1`, the GI50 was > 100 µM (inactive) with UO-31; > 100 µM (inactive) in the assay on NCI-H226; > 100 µM (inactive) in the assay on MOLT-4; > 100 µM (inactive) with SK-MEL-2; 32.8 µM (inactive) in the assay on HOP-92; > 100 µM (inactive) in the assay with MDA-MB-231. For the same molecule, the GI50 in the assay on SK-OV-3 was > 100 µM (inactive); in the assay with SK-MEL-28, > 100 µM (inactive); with SW-620 it was 50.9 µM (inactive); with T47D, > 100 µM (inactive); with DU-145, > 100 µM (inactive); in the assay on NCI/ADR-RES, > 100 µM (inactive). Moreover, the GI50 with NCI-H522 is 56.6 µM (inactive); in the assay on OVCAR-8, > 100 µM (inactive).
